Assay results: ChEMBL document CHEMBL3227961, “Antileukemic activity of substituted ureidothiazoles, ureidothiadiazoles, and related compounds” (J Med Chem, 1979)
Active and inactive are the calls of the source. The calls are words filed in the database; no cut-off is given here.

Assays:
[1] = system: P388; experiment: Antitumor activity against mouse P388 cells allografted in BDF1 mouse assessed as survival at 100 mg/kg administered as qd for 1 to 9 days; assay type: functional, organism-based; parameters: dose 100 mg/kg
[2] = system: P388; experiment: Antitumor activity against mouse P388 cells allografted in BDF1 mouse assessed as survival at 200 mg/kg administered as qd for 1 to 9 days; assay type: functional, organism-based; parameters: dose 200 mg/kg
[3] = system: P388; experiment: Antitumor activity against mouse P388 cells allografted in BDF1 mouse assessed as tumor growth inhibition at 100 mg/kg administered as qd for 1 to 9 days relative to control; assay type: functional
[4] = system: P388; experiment: Antitumor activity against mouse P388 cells allografted in BDF1 mouse assessed as tumor growth inhibition at 200 mg/kg administered as qd for 1 to 9 days relative to control; assay type: functional
[5] = system: P388; experiment: Antitumor activity against mouse P388 cells allografted in BDF1 mouse assessed as tumor growth inhibition at 400 mg/kg administered as qd for 1 to 9 days relative to control; assay type: functional
[6] = system: P388; experiment: Antitumor activity against mouse P388 cells allografted in BDF1 mouse assessed as survival at 400 mg/kg administered as qd for 1 to 9 days; assay type: functional, organism-based; parameters: dose 400 mg/kg
[7] = system: P388; experiment: Antitumor activity against mouse P388 cells allografted in BDF1 mouse assessed as tumor growth inhibition at 50 mg/kg administered as qd for 1 to 9 days relative to control; assay type: functional
[8] = system: P388; experiment: Antitumor activity against mouse P388 cells allografted in BDF1 mouse assessed as survival at 50 mg/kg administered as qd for 1 to 9 days; assay type: functional, organism-based; parameters: dose 50 mg/kg
[9] = system: P388; experiment: Antitumor activity against mouse P388 cells allografted in BDF1 mouse assessed as survival at 12.5 mg/kg administered as qd for 1 to 9 days; assay type: functional, organism-based; parameters: dose 12.5 mg/kg
[10] = system: P388; experiment: Antitumor activity against mouse P388 cells allografted in BDF1 mouse assessed as tumor growth inhibition at 25 mg/kg administered as qd for 1 to 9 days relative to control; assay type: functional
[11] = system: B16; experiment: Antitumor activity against mouse B16 cells allografted in BDF1 mouse assessed as tumor growth inhibition at 6.25 to 50 mg/kg administered as qd for 1 to 9 days relative to control; assay type: functional, organism-based
[12] = system: P388; experiment: Antitumor activity against mouse P388 cells allografted in BDF1 mouse assessed as tumor growth inhibition at 12.5 mg/kg administered as qd for 1 to 9 days relative to control; assay type: functional
[13] = system: Mus musculus; experiment: Toxicity in mouse B16 cells allografted in BDF1 mouse at 6.25 to 50 mg/kg administered as qd for 1 to 9 days; assay type: organism-based
[14] = system: P388; experiment: Antitumor activity against mouse P388 cells allografted in BDF1 mouse assessed as survival at 25 mg/kg administered as qd for 1 to 9 days; assay type: functional, organism-based; parameters: dose 25 mg/kg
[15] = system: Lewis lung carcinoma cell line; experiment: Antitumor activity against mouse LLC cells allografted in BDF1 mouse assessed as tumor growth inhibition; assay type: functional
[16] = system: B16; experiment: Antitumor activity against mouse B16 cells allografted in BDF1 mouse assessed as tumor growth inhibition at 400 mg/kg administered as qd for 1 to 9 days relative to control; assay type: functional
[17] = system: B16; experiment: Antitumor activity against mouse B16 cells allografted in BDF1 mouse assessed as tumor growth inhibition at 200 mg/kg administered as qd for 1 to 9 days relative to control; assay type: functional
[18] = system: L1210; experiment: Antitumor activity against mouse L1210 cells allografted in BDF1 mouse assessed as tumor growth inhibition at 200 mg/kg administered as qd for 1 to 9 days relative to control; assay type: functional
[19] = system: B16; experiment: Antitumor activity against mouse B16 cells allografted in BDF1 mouse assessed as tumor growth inhibition at 100 mg/kg administered as qd for 1 to 9 days relative to control; assay type: functional
[20] = system: B16; experiment: Antitumor activity against mouse B16 cells allografted in BDF1 mouse assessed as tumor growth inhibition at 25 mg/kg administered as qd for 1 to 9 days relative to control; assay type: functional
[21] = system: B16; experiment: Antitumor activity against mouse B16 cells allografted in BDF1 mouse assessed as tumor growth inhibition at 50 mg/kg administered as qd for 1 to 9 days relative to control; assay type: functional

SMILES | Activity [1] | Activity [2] | T/C [3] [%] | T/C [4] [%] | T/C [7] [%] | Activity [8] | T/C [10] [%] | also measured
Cc1ccc(S(=O)(=O)NC(=O)Nc2nccs2)cc1 | Active | Active | 106 | 99 |  |  |  | 
CCOC(=O)c1ccc(NC(=O)Nc2scc[n+]2C)cc1.COS(=O)(=O)[O-] | Active |  | 100 | 90 |  |  |  | 
O=C(Nc1nccs1)C(F)(F)F | Active |  | 104 | 99 |  |  |  | T/C [5]: 108%; Activity [6]: Active
CCOC(=O)c1ccc(NC(=S)Nc2nccs2)cc1 | Active |  | 95 | 92 |  |  |  | T/C [5]: 92%
CNC(=O)Nc1nccs1 |  | Active | 96 | 97 | 105 | Active |  | 
O=C(Nc1ccccc1)Nc1nccs1 | Active | Active | 96 | 93 |  |  |  | 
CCOC(=O)c1ccc(NC(=O)Nc2nnn[nH]2)cc1 |  | Active |  | 100 |  |  |  | T/C [5]: 108%; Activity [6]: Active
CCOC(=O)c1ccc(NC(=O)Nc2nc(C)cs2)cc1 | Active | Active | 127 | 138 | 109 | Active |  | 
CCOC(=O)c1ccc(NC(=O)Nc2nncs2)cc1 | Active |  | 134 |  | 138 | Active | 132 | Activity [9]: Active; TGI [11]: inactive; T/C [12]: 119%; Activity [13]: Non-toxic; Activity [14]: Active
N#Cc1ccc(NC(=O)Nc2nccs2)cc1 |  |  | 160 |  | 132 | Active | 124 | Activity [14]: Active
CCOC(=O)c1ccc(NC(=O)Nc2nnc(NC(=O)Nc3ccc(C(=O)OCC)cc3)[nH]2)cc1 | Active |  | 88 |  | 89 | Active |  | 
CCOC(=O)Nc1nncs1 | Active | Active | 142 | 151 | 132 | Active | 108 | Activity [14]: Active
O=C(Nc1ccc(Cl)cc1)Nc1nccs1 | Active |  | 118 |  | 111 | Active |  | 
O=C(Nc1nncs1)C(F)(F)F |  |  |  |  | 161 | Active | 130 | Activity [9]: Active; T/C [12]: 110%
O=C(CCl)Nc1nccs1 | Active |  | 116 |  | 103 | Active |  | 
N#Cc1ccc(NC(=O)Nc2nncs2)cc1 | Active |  | 140 | 146 | 131 | Active | 122 | Activity [14]: Active
O=C(Nc1ccc([N+](=O)[O-])cc1)Nc1nncs1 | Active |  | 124 | 132 |  |  |  | T/C [5]: 142%
Cc1ccc(NC(=O)Nc2nccs2)cc1 | Active | Active | 99 | 105 |  |  |  | 
O=C(Nc1ccccc1)Nc1nncs1 |  |  |  |  |  |  | 104 | Activity [9]: Active; T/C [12]: 104%; Activity [14]: Active
CCOC(=O)Nc1nccs1 | Active | Active | 102 | 108 |  |  |  | 
CCOC(=O)c1ccc(NC(=O)NC2=NCCS2)cc1 |  | Active |  | 87 |  |  |  | T/C [5]: 92%; Activity [6]: Active
CCOC(=O)c1ccc(NC(=O)Nc2nccs2)cc1 | Active |  | 143 | 162 | 149 | Active | 145 | TGI [15]: inactive; T/C [16]: 153%; T/C [17]: 167%; T/C [18]: 125%; T/C [19]: 166%; T/C [20]: 134%; T/C [21]: 147%; Activity [14]: Active
O=C(Nc1ccc(C(=O)O)cc1)Nc1nccs1 | Active | Active | 150 | 163 | 143 | Active | 125 | Activity [14]: Active
O=C(Nc1ccc([N+](=O)[O-])cc1)Nc1nccs1 |  |  |  |  | 142 | Active | 127 | Activity [9]: Active; T/C [12]: 112%; Activity [14]: Active
CCOC(=O)c1ccc(NC(=O)Nc2nc3ccccc3s2)cc1 |  | Active |  | 90 |  |  |  | T/C [5]: 90%; Activity [6]: Active
O=C(CCl)Nc1nncs1 | Active | Active | 104 | 100 |  |  |  | 
CCOC(=O)c1ccc(NC(=O)Nc2nc3ccc(OC)cc3s2)cc1 |  | Active |  | 89 |  |  |  | T/C [5]: 89%; Activity [6]: Active
